Reference: patent US10111435B2, “Herbicidal compositions containing N-(1,3,4-oxadiazol-2-yl)-aryl carboxylic acid amides” (BAYER CROPSCIENCE AKTIENGESELLSCHAFT, priority 2013, dated 2018)

Legend:
Format in all cases: in vivo
[1] = tested on: Echinochloa crus-galli (ECHCG); assay: greenhouse post-emergence herbicidal efficacy against ECHCG
Method in brief: (§1)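 Visual ratings (0% no effect, 100% complete kill) at 14 and 21 days after a post-emergence spray of 300 L/ha onto pot-grown weeds under greenhouse conditions. Mixtures and single active ingredients both tested. Differences from Colby-expected values, E^C=A+B−A×B/100, classify interactions as synergistic, additive or antagonistic.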

Eleusine indica (ELEIN) = assay: greenhouse post-emergence herbicidal efficacy against ELEIN
Method in brief: as §1

Setaria viridis (SETVI) = assay: greenhouse post-emergence herbicidal efficacy against SETVI
Method in brief: as §1

[2] = tested on: Amaranthus retroflexus (AMARE); assay: greenhouse post-emergence herbicidal efficacy against AMARE; settings: 0.4 g of a.i./ha
Method in brief: as §1

[3] = tested on: Chenopodium album (CHEAL); assay: greenhouse post-emergence herbicidal efficacy against CHEAL
Method in brief: as §1

Kochia scoparia (KCHSC) = assay: greenhouse post-emergence herbicidal efficacy against KCHSC
Method in brief: as §1

Solanum nigrum (SOLNI) = assay: greenhouse post-emergence herbicidal efficacy against SOLNI
Method in brief: as §1

Avena fatua (AVEFA) = assay: greenhouse post-emergence herbicidal efficacy against AVEFA
Method in brief: (§2)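 Read-out is visual percent herbicidal effect relative to untreated plants, taken 14 and 21 days after treatment. Pot-grown plants in sandy loam received mixtures or solo active ingredients post-emergence at a spray volume of 300 L/ha under optimum greenhouse conditions.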

Bromus sterilis (BROST) = assay: greenhouse post-emergence herbicidal efficacy against BROST; settings: 21 days after application
Method in brief: as §2

[4] = tested on: Lolium multiflorum (LOLMU); assay: greenhouse post-emergence herbicidal efficacy against LOLMU; settings: 21 days after application
Method in brief: as §2

Phalaris minor (PHAMI) = assay: greenhouse post-emergence herbicidal efficacy against PHAMI
Method in brief: as §2

Poa annua (POAAN) = assay: greenhouse post-emergence herbicidal efficacy against POAAN
Method in brief: as §2

Galium aparine (GALAP) = assay: greenhouse post-emergence herbicidal efficacy against GALAP; settings: for Efficacy: 14 days after application
Method in brief: as §2

[5] = tested on: Matricaria inodora (MATIN); assay: greenhouse post-emergence herbicidal efficacy against MATIN; settings: 14 days after application
Method in brief: as §2

[6] = tested on: Polygonum convolvulus (POLCO); assay: greenhouse post-emergence herbicidal efficacy against POLCO; settings: 21 days after application
Method in brief: as §2

DIGSA = assay: greenhouse post-emergence herbicidal efficacy against DIGSA; settings: 14 days after application, 0.4 g of a.i./ha
Method in brief: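 Pot-grown plants in sandy loam sprayed post-emergence at 300 L/ha in the greenhouse, with compositions or single active ingredients. Damage scored visually against untreated plants 14 and 21 days after application (0% none, 100% complete kill); combination interactions evaluated by Colby's expected-value formula.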

[7] = 14 days after application, 0.1 g of a.i./ha
[8] = 14 days after application, 0.4 g of a.i./ha
[9] = 21 days after application, 0.1 g of a.i./ha
[10] = 21 days after application, 0.4 g of a.i./ha
[11] = 21 days after application; 0.1 g of a.i./ha
[12] = 21 days after application; 0.4 g of a.i./ha
[13] = 14 days after application, 10 g of a.i./ha
[14] = 21 days after application, g of a.i./ha: A1-13 2.5, indaziflam 40
[15] = 21 days after application, g of a.i./ha: A1-13 2.5, mesosulfuron-methyl 10
[16] = 21 days after application, g of a.i./ha: A1-13 10, indaziflam 40
[17] = 21 days after application, g of a.i./ha: A1-13 10, mesosulfuron-methyl 10
[18] = g of a.i./ha: A1-13 2.5, mesosulfuron-methyl 10
[19] = g of a.i./ha: A1-13 10, indaziflam 10
[20] = g of a.i./ha: A1-13 10, mesosulfuron-methyl 10
[21] = 14 days after application, 2.5 g of a.i./ha
[22] = 21 days after application, dosage 10 g of a.i./ha
[23] = g of a.i./ha: A1-13 2.5, indaziflam 10

Compound `Cc1nnc(NC(=O)c2ccc(C(F)(F)F)c(S(C)(=O)=O)c2C)o1` [A1-13] has an Efficacy [1, 7] of 0%, an Efficacy [1, 8] of 0% and an Efficacy [1, 9] of 0%. It also gave an Efficacy [1, 10] of 0%, an Efficacy [1, 11] of 0% and an Efficacy [1, 12] of 0%. For the same compound, the Efficacy (Eleusine indica (ELEIN); [8]) was 20%, the Efficacy (Eleusine indica (ELEIN); [9]) was 0% and the Efficacy (Eleusine indica (ELEIN); [10]) was 10%. It also gave an Efficacy (Eleusine indica (ELEIN); [11]) of 0%, an Efficacy (Eleusine indica (ELEIN); [12]) of 10% and an Efficacy (Setaria viridis (SETVI); [7]) of 0%. For the same compound, the Efficacy (Setaria viridis (SETVI); [8]) was 10%, the Efficacy (Setaria viridis (SETVI); [9]) was 0% and the Efficacy (Setaria viridis (SETVI); [10]) was 10%. For the same compound, the Efficacy (Setaria viridis (SETVI); [11]) was 0%, the Efficacy (Setaria viridis (SETVI); [12]) was 10% and the Efficacy ([2]; 14 days after application) was 0%. For the same compound, the Efficacy ([2]; 21 days after application) was 10%, the Efficacy [3, 7] was 0% and the Efficacy [3, 8] was 10%. For the same compound, the Efficacy [3, 9] was 0%, the Efficacy (Kochia scoparia (KCHSC); [7]) was 0% and the Efficacy (Kochia scoparia (KCHSC); [8]) was 0%. It also gave an Efficacy (Kochia scoparia (KCHSC); [10]) of 0%, an Efficacy (Kochia scoparia (KCHSC); [11]) of 0% and an Efficacy (Kochia scoparia (KCHSC); [12]) of 0%. It also gave an Efficacy (Solanum nigrum (SOLNI); [7]) of 10%, an Efficacy (Solanum nigrum (SOLNI); [8]) of 20% and an Efficacy (Solanum nigrum (SOLNI); [10]) of 10%. It also gave an Efficacy (Avena fatua (AVEFA); [13]) of 35%, an Efficacy (Avena fatua (AVEFA); [14]) of 0% and an Efficacy (Avena fatua (AVEFA); [15]) of 0%. For the same compound, the Efficacy (Avena fatua (AVEFA); [16]) was 3%, the Efficacy (Avena fatua (AVEFA); [17]) was 3% and the Efficacy (Bromus sterilis (BROST); g of a.i./ha: A1-13 2.5, mesosulfuron-methyl 2.5) was 0%. It also gave an Efficacy (Bromus sterilis (BROST); [18]) of 0%, an Efficacy (Bromus sterilis (BROST); [19]) of 5% and an Efficacy (Bromus sterilis (BROST); [20]) of 5%. For the same compound, the Efficacy [4, 19] was 5%, the Efficacy [4, 20] was 5% and the Efficacy (Phalaris minor (PHAMI); [21]) was 30%. For the same compound, the Efficacy (Phalaris minor (PHAMI); [13]) was 30%, the Efficacy (Phalaris minor (PHAMI); 14 days after application, g of a.i./ha: A1-13 2.5, indaziflam 40) was 30% and the Efficacy (Phalaris minor (PHAMI); 14 days after application, g of a.i./ha: A1-13 10, indaziflam 40) was 30%. For the same compound, the Efficacy (Phalaris minor (PHAMI); [14]) was 15%, the Efficacy (Phalaris minor (PHAMI); 21 days after application, g of a.i./ha: A1-13 2.5, mesosulfuron-methyl 2.5) was 15% and the Efficacy (Phalaris minor (PHAMI); [15]) was 15%. The Efficacy (Phalaris minor (PHAMI); [16]) was 20%, the Efficacy (Phalaris minor (PHAMI); [17]) was 20% and the Efficacy (Poa annua (POAAN); [21]) was 20%. The Efficacy (Poa annua (POAAN); [13]) was 40%, the “Efficacy against POAAN” value (Poa annua (POAAN); [22]) was 20% and the Efficacy (Poa annua (POAAN); [15]) was 10%. For the same compound, the Efficacy (Galium aparine (GALAP); 10 g of a.i./ha) was 50%, the Efficacy (Galium aparine (GALAP); [23]) was 40% and the Efficacy (Galium aparine (GALAP); g of a.i./ha: A1-13 10, indaziflam 40) was 50%. For the same compound, the “Efficacy against GALAP” value (Galium aparine (GALAP); [22]) was 60%, the Efficacy ([5]; 2.5 g of a.i./ha) was 30% and the Efficacy ([5]; 10 g of a.i./ha) was 40%. The Efficacy [5, 23] was 30%, the Efficacy [5, 19] was 40% and the Efficacy [6, 18] was 0%. The Efficacy [6, 20] was 0% and the Efficacy (DIGSA) was 0%.
